Measurements reported in the CATMoS acute toxicity set (Mansouri et al. 2021).

Assay: rat acute oral toxicity
Settings: in vivo
From the text: […]The data set underlying the modeling effort for this project was initially compiled by NICEATM and U.S. EPA’s CCTE. Briefly, LD50 data were collected from rat acute oral systemic toxicity tests, including limit tests, ranges/confidence intervals, and discrete LD50 values. The full data set included 21,200 LD50 entries for 15,688 substances. […] Data were reviewed to ensure that LD50 values with obvious errors in the extracted data such as unit conversion errors (e.g., comma and decimal separator misplacements) were either fixed or removed. After this review, 16,209 LD50 values remained. Many of the chemicals represented had multiple LD50 entries, requiring that a single representative value per Chemical Abstracts Service Registry Number (CASRN) identifier be defined to facilitate modeling efforts. Based on ATWG feedback and to define the representative LD50 as a protective value while accounting for the distribution across multiple LD50s, the median of the lowest quartile was computed using only discrete LD50 values (omitting limit test data and range and confidence interval data). A detailed summary of the data compilation is available online on the NICEATM webpage dedicated to the collaborative modeling project (NTP 2020).
[…][…] For categorical designations, limit test and range/confidence interval LD50 data were integrated wherever possible. As such, the number of chemicals with end point values/calls varies across the modeling end points (Table 3) based on whether chemicals had representative LD50 values and/or other data. If a chemical had both, the representative value was used to determine categorical calls rather than limit test data. Some data were useable only for certain end points and categories depending on the thresholds. For example, ranges that spanned multiple hazard categories were considered only for the binary (very toxic/nontoxic) end points and omitted from rendering a determination for hazard category assignment.
[…]The final data set comprising 11,992 chemicals was split into training and evaluation sets […], respectively. This process was performed semirandomly by ordering chemicals based on the five end points (categorical and continuous LD50 values) and partitioning every fourth record into the evaluation set accordingly. This approach was taken to ensure an equivalent distribution of the LD50 values and the different hazard categories between the training and the evaluation sets without supervised sampling of the chemicals based on structures (Figure 1A). The sources of the chemical structures were also kept equivalent between the two sets, with chemical structures obtained from DSSTox, being the highest quality, representing over 75% of each set (Figure 1B).

Work on `O=C(O)c1ccc2c(c1)C(=O)OC2=O` yielded an LD50 of 2030 mg/kg.
In the case of `O=Cc1ccccc1`, the LD50 is reported as 1300 mg/kg.
In the case of `O=CC=O`, the LD50 is reported as 481 mg/kg.
Work on `NC=O` yielded an LD50 of 5580 mg/kg.
Compound `C[C@@H](O)C(=O)O` has an LD50 of 3540 mg/kg.
Work on `CCCC(C)c1cccc(OC(=O)NC)c1` (stereo unspecified) yielded an LD50 of 50 mg/kg.
`COc1nc(C)nc(NC(=O)NS(=O)(=O)c2ccccc2Cl)n1` gave an LD50 of 5540 mg/kg.
For `N#CCNC(=O)c1cnccc1C(F)(F)F`, the LD50 was 884 mg/kg.
`CO[Si](OC)(c1ccccc1)c1ccccc1` gave an LD50 of 2610 mg/kg.
For `C=CCOC(=O)c1ccccc1C(=O)OCC=C`, the LD50 was 656 mg/kg.
`CC(C)C(=O)c1ccccc1` gave an LD50 of 1950 mg/kg.
`Clc1cccc(Cl)c1Cl` showed an LD50 of 756 mg/kg.
Work on `CCOC(=O)CCN(SN(C)C(=O)Oc1cccc2c1OC(C)(C)C2)C(C)C` yielded an LD50 of 105 mg/kg.
For `COc1nn(CSP(=S)(OC)OC)c(=O)s1`, the LD50 was 20 mg/kg.
In the case of `C/C=C\CC1=C(C)[C@@H](OC(=O)[C@@H]2[C@@H](/C=C(\C)C(=O)OC)C2(C)C)CC1=O`, the LD50 is reported as 1030 mg/kg.
Work on `C=CC(=O)OCCO` yielded an LD50 of 548 mg/kg.
With `Oc1nc2ccccc2[nH]1` the LD50 was 1930 mg/kg.
Work on `NC(=O)c1ccccc1O` yielded an LD50 of 980 mg/kg.
`CC1OC(C)OC(C)O1` (stereo unspecified) showed an LD50 of 1530 mg/kg.
In the case of `Clc1ccc(C(Cl)(Cl)Cl)cc1Cl`, the LD50 is reported as 1420 mg/kg.
For `CCCCCCCCCCCCCC[N+](C)(C)Cc1ccccc1`, the LD50 was 281 mg/kg.
`CN(C)S(=O)(=O)Cl` showed an LD50 of 1220 mg/kg.
For `OCCc1ccccn1`, the LD50 was 3840 mg/kg.
In the case of `CCC(=O)C(CC(C)N(C)C)(c1ccccc1)c1ccccc1` (stereo unspecified), the LD50 is reported as 30 mg/kg.
For `NC(=O)NCc1ccccc1`, the LD50 was 2700 mg/kg.
`Nc1ccccc1[N+](=O)[O-]` gave an LD50 of 1600 mg/kg.
In the case of `CC1=CC(C)(C)CC(=O)C1`, the LD50 is reported as 1500 mg/kg.
In the case of `CN(C)C(C)(C)CO`, the LD50 is reported as 1660 mg/kg.
`CCOP(=S)(OCC)OC(Cl)C(Cl)(Cl)Cl` (stereo unspecified) gave an LD50 of 1.8 mg/kg.
In the case of `C/C=C\CC1=C(C)[C@@H](OC(=O)[C@@H]2[C@@H](C=C(C)C)C2(C)C)CC1=O`, the LD50 is reported as 1030 mg/kg.
Work on `CNC(=S)NN` yielded an LD50 of 14 mg/kg.
In the case of `CN(C)C(=O)Nc1ccccc1`, the LD50 is reported as 6400 mg/kg.
`CC(O)COC(C)CO` (stereo unspecified) showed an LD50 of 2280 mg/kg.
Compound `CC(C#N)CCC#N` (stereo unspecified) has an LD50 of 170 mg/kg.
For `CCc1ccccc1`, the LD50 was 3500 mg/kg.
With `CCCCOCCOC(C)=O` the LD50 was 1880 mg/kg.
With `O=C(CCl)c1ccccc1` the LD50 was 50 mg/kg.
`O=[N+]([O-])c1cccc(Cl)c1` gave an LD50 of 300 mg/kg.
Work on `O=Cc1ccco1` yielded an LD50 of 100 mg/kg.
With `OCCCl` the LD50 was 58 mg/kg.
Compound `CCOP(=O)(NC(C)C)Oc1ccc(SC)c(C)c1` (stereo unspecified) has an LD50 of 2.7 mg/kg.
`O=[N+]([O-])c1cc(Cl)ccc1Cl` showed an LD50 of 1000 mg/kg.
Work on `O=C1C2(Cl)C3(Cl)C4(Cl)C(Cl)(Cl)C5(Cl)C3(Cl)C1(Cl)C5(Cl)C24Cl` (stereo unspecified) yielded an LD50 of 91.3 mg/kg.
In the case of `O=P(O)(O)CCCl`, the LD50 is reported as 3400 mg/kg.
In the case of `CC1(C)C(=O)N(Br)C(=O)N1Br`, the LD50 is reported as 250 mg/kg.
For `COP(=S)(OC)Oc1cc(Cl)c(Br)cc1Cl`, the LD50 was 1600 mg/kg.
Work on `CC(=O)C=C(C)C` yielded an LD50 of 300 mg/kg.
Work on `COc1ccc2c(c1)c(CC(=O)O)c(C)n2C(=O)c1ccc(Cl)cc1` yielded an LD50 of 2.42 mg/kg.
Work on `O=C1CCCN1` yielded an LD50 of 328 mg/kg.
`CC(C)=O` showed an LD50 of 5800 mg/kg.
Compound `CCCCSP(SCCCC)SCCCC` has an LD50 of 910 mg/kg.
`CSc1nc(NC(C)C)nc(NC(C)C)n1` showed an LD50 of 1940 mg/kg.
`C[C@@H]1Cc2c(Cl)cc(C(=O)N[C@@H](Cc3ccccc3)C(=O)O)c(O)c2C(=O)O1` gave an LD50 of 20 mg/kg.
With `CCN(CC)CCCN` the LD50 was 410 mg/kg.
`Cc1ccccc1Cc1ccccc1` gave an LD50 of 3020 mg/kg.
Work on `Cc1ccccc1NC(=N)Nc1ccccc1C` yielded an LD50 of 70.7 mg/kg.
In the case of `O=C1C=CC(=O)O1`, the LD50 is reported as 318 mg/kg.
For `CCNS(=O)(=O)C(F)(F)C(F)(F)C(F)(F)C(F)(F)C(F)(F)C(F)(F)C(F)(F)C(F)(F)F`, the LD50 was 507 mg/kg.
In the case of `Oc1ccccc1Cl`, the LD50 is reported as 40 mg/kg.
For `ClC(Cl)(Cl)c1ccccc1`, the LD50 was 1590 mg/kg.
In the case of `COC(=O)C(C)Oc1ccc(Oc2ccc(Cl)cc2Cl)cc1` (stereo unspecified), the LD50 is reported as 481 mg/kg.
Work on `CN1CCC[C@H]1c1cccnc1` yielded an LD50 of 51.2 mg/kg.
`CCC(C)=NO[Si](ON=C(C)CC)(ON=C(C)CC)ON=C(C)CC` showed an LD50 of 2450 mg/kg.
For `CCOCCOC(C)=O`, the LD50 was 2700 mg/kg.
With `O=CCCCC=O` the LD50 was 134 mg/kg.
Work on `Cc1c(Cl)cccc1[N+](=O)[O-]` yielded an LD50 of 2320 mg/kg.
`CC(C)(C)C(=O)O` gave an LD50 of 900 mg/kg.
In the case of `ClSC(Cl)(Cl)Cl`, the LD50 is reported as 82.6 mg/kg.
With `c1ccc(OCC2CO2)cc1` (stereo unspecified) the LD50 was 2500 mg/kg.
Work on `OC[P+](CO)(CO)CO` yielded an LD50 of 161 mg/kg.
With `Cc1ccc2nc3sc(=O)sc3nc2c1` the LD50 was 1100 mg/kg.
